Data taken from patent publication US10183914B2 (BAYER CROPSCIENCE AKTIENGESELLSCHAFT, priority 2014, dated 2019).

How the values were obtained:
[1] = logp (HCOOH), physicochemical characterization
[2] = test system: Oryza sativa; test: Pre-emergence herbicidal effect and crop plant compatibility; type: in vivo; conditions: 3 weeks
Text: (§1) Seeds of monocotyledonous and dicotyledonous weed plants and crop plants are laid out in wood-fiber pots in sandy loam and covered with soil. The compounds of the invention, formulated in the form of wettable powders (WP) or as emulsion concentrates (EC), are then applied to the surface of the covering soil as aqueous suspension or emulsion at a water application rate equating to 600 to 800 L/ha with addition of 0.2% wetting agent.
(§2) After the treatment, the pots are placed in a greenhouse and kept under good growth conditions for the trial plants. The damage to the trial plants is scored visually after a trial duration of 3 weeks by comparison with untreated controls (herbicidal activity in percent (%): 100% efficacy=the plants have died, 0% efficacy=like control plants).

[3] = test system: Triticum aestivum (spring); test: as above; type: in vivo; conditions: 3 weeks
Text: as §1, §2

[4] = test system: Zea mays; test: as above; type: in vivo; conditions: 3 weeks
Text: as §1, §2

[5] = test system: Alopecurus myosuroides; test: Pre-emergence herbicidal effect; type: in vivo; conditions: 320 g/ha, 3 weeks
Text: as §1, §2

[6] = test system: Amaranthus retroflexus; test: Pre-emergence herbicidal effect; type: in vivo; conditions: 3 weeks
Text: as §1, §2

[7] = test system: Echinochloa crus-galli; test: Pre-emergence herbicidal effect; type: in vivo; conditions: 3 weeks
Text: as §1, §2

[8] = test system: Lolium multiflorum; test: Pre-emergence herbicidal effect; type: in vivo; conditions: 3 weeks
Text: as §1, §2

[9] = test system: Matricaria inodora; test: Pre-emergence herbicidal effect; type: in vivo; conditions: 3 weeks
Text: as §1, §2

[10] = test system: Polygonum convolvulus; test: Pre-emergence herbicidal effect; type: in vivo; conditions: 3 weeks
Text: as §1, §2

[11] = test system: Setaria viridis; test: Pre-emergence herbicidal effect; type: in vivo; conditions: 3 weeks
Text: as §1, §2

[12] = test system: Stellaria media; test: Pre-emergence herbicidal effect; type: in vivo; conditions: 3 weeks
Text: as §1, §2

[13] = test system: Veronica persica; test: Pre-emergence herbicidal effect; type: in vivo; conditions: 3 weeks
Text: as §1, §2

[14] = test system: Viola tricolor; test: Pre-emergence herbicidal effect; type: in vivo; conditions: 3 weeks
Text: as §1, §2

[15] = test system: Oryza sativa; test: Post-emergence herbicidal effect and crop plant compatibility; type: in vivo; conditions: visual scoring after about 3 weeks
Experimental: (§3) Seeds of monocotyledonous and dicotyledonous weed and crop plants are laid out in sandy loam in wood-fiber pots, covered with soil and cultivated in a greenhouse under good growth conditions. 2 to 3 weeks after sowing, the test plants are treated at the one-leaf stage. The compounds of the invention, formulated in the form of wettable powders (WP) or as emulsion concentrates (EC), are then sprayed onto the green parts of the plants as aqueous suspension or emulsion at a water application rate equating to 600 to 800 L/ha with addition of 0.2% wetting agent. After the trial plants have been left to stand in a greenhouse under optimal growth conditions for about 3 weeks, the efficacy of the formulations is scored visually in comparison to untreated controls (herbicidal action in percent (%): 100% efficacy=the plants have died, 0% efficacy=like control plants).

[16] = test system: Triticum aestivum (spring); test: as above; type: in vivo; conditions: visual scoring after about 3 weeks
Experimental: as §3

[17] = test system: Zea mays; test: as above; type: in vivo; conditions: visual scoring after about 3 weeks
Experimental: as §3

[18] = test system: Ipomoea purpurea; test: Post-emergence herbicidal effect; type: in vivo; conditions: 320 g/ha (dose by row order of upper half), scoring after about 3 weeks
Experimental: as §3

[19] = test system: Avena fatua; test: Pre-emergence herbicidal effect; type: in vivo; conditions: 320 g/ha, 3 weeks
Text: as §1, §2

[20] = test system: Echinochloa crus-galli; test: Post-emergence herbicidal effect; type: in vivo; conditions: visual scoring after about 3 weeks
Experimental: as §3

[21] = test system: Lolium multiflorum; test: Post-emergence herbicidal effect; type: in vivo; conditions: 320 g/ha, visual scoring after about 3 weeks
Experimental: as §3

[22] = test system: Abutilon theophrasti; test: Pre-emergence herbicidal effect; type: in vivo; conditions: 320 g/ha, 3 weeks
Text: as §1, §2

[23] = test system: Setaria viridis; test: Post-emergence herbicidal effect; type: in vivo; conditions: scoring after about 3 weeks
Experimental: as §3

[24] = 320 g/ha (dose by row order of upper half)

| Structure (SMILES) | logp (HCOOH) [1] | ORYSA herbicidal activity in percent ([2]; 320 g/ha) | TRZAS herbicidal activity in percent ([3]; 320 g/ha) | ZEAMX herbicidal activity in percent ([4]; 320 g/ha) | ALOMY herbicidal activity in percent [5] | AMARE herbicidal activity in percent ([6]; 320 g/ha) | ECHCG herbicidal activity in percent ([7]; 320 g/ha) | LOLMU herbicidal activity in percent ([8]; 320 g/ha) | MATIN herbicidal activity in percent ([9]; 320 g/ha) | POLCO herbicidal activity in percent ([10]; 320 g/ha) | SETVI herbicidal activity in percent ([11]; 320 g/ha) | STEME herbicidal activity in percent ([12]; 320 g/ha) | VERPE herbicidal activity in percent ([13]; 320 g/ha) | VIOTR herbicidal activity in percent ([14]; 320 g/ha) | post-emergence efficacy ORYSA ([15]; 80 g/ha) | post-emergence efficacy ORYSA ([15]; 320 g/ha) | post-emergence efficacy TRZAS ([16]; 80 g/ha) | post-emergence efficacy TRZAS ([16]; 320 g/ha) | post-emergence efficacy ZEAMX ([17]; 80 g/ha) | post-emergence efficacy ZEAMX ([17]; 320 g/ha) | also measured |
| --- | --- | --- | --- | --- | --- | --- | --- | --- | --- | --- | --- | --- | --- | --- | --- | --- | --- | --- | --- | --- | --- |
| O=C1CC(C(F)(F)F)Cc2nc(N[C@@H]3CCCc4ccccc43)ncc21 (stereo partly drawn) [2.96] | oily; logp (HCOOH): 3.71; 1H-NMR (CDCl3, 400 MHZ, δ in ppm): ): 1.95 (m, 3H, 2H | 0% | 0% | 10% | 80% | 100% | 100% | 90% | 90% | 80% | 90% | 100% | 100% | 100% | 0% | 0% | 10% | 20% | 0% | 10% | TRZAS herbicidal activity in percent ([3]; 80 g/ha): 0%; ZEAMX herbicidal activity in percent ([4]; 80 g/ha): 0%; AMARE herbicidal activity in percent ([6]; 80 g/ha): 100%; STEME herbicidal activity in percent ([12]; 80 g/ha): 100%; VERPE herbicidal activity in percent ([13]; 80 g/ha): 100%; VIOTR herbicidal activity in percent ([14]; 80 g/ha): 100%; post-emergence efficacy PHBPU [18]: 80% |
| CC1(C)CC(=O)c2cnc(NC3CCOc4ccccc43)nc2C1 (racemic) [2.94] | oily; logp (HCOOH): 2.97; 1H-NMR (CDCl3, 400 MHZ, δ in ppm): 1.10 (s, 6H, | 0% | 0% | 0% | 80% | 100% | 100% | 90% | 100% | 100% | 90% | 100% | 100% | 100% | 0% | 0% | 10% | 20% | 0% | 0% | post-emergence efficacy PHBPU [18]: 80% |
| O=C1CCCc2nc(N[C@@H]3CCOc4c(F)cccc43)ncc21 [2.19] | oily; logp (HCOOH): 2.29; 1H-NMR (CDCl3, 400 MHZ, δ in ppm): 2.15 (m, 3H, 2H |  | 0% | 10% | 100% | 100% | 100% | 100% | 100% | 100% | 100% | 100% | 100% | 100% |  | 20% |  | 20% |  |  | AVEFA herbicidal activity in percent [19]: 90%; post-emergence efficacy ECHCG ([20]; 320 g/ha): 100%; post-emergence efficacy PHBPU [18]: 80%; post-emergence efficacy LOLMU [21]: 100% |
| Cc1cccc2c1OCC[C@H]2Nc1ncc2c(n1)CCCC2=O [2.100] |  |  | 10% | 10% | 80% | 100% | 100% | 100% | 100% | 90% | 100% | 100% | 100% | 100% | 0% | 0% | 10% | 20% | 10% | 10% | TRZAS herbicidal activity in percent ([3]; 80 g/ha): 0%; ZEAMX herbicidal activity in percent ([4]; 80 g/ha): 0%; ABUTH herbicidal activity in percent [22]: 90%; AMARE herbicidal activity in percent ([6]; 80 g/ha): 100%; ECHCG herbicidal activity in percent ([7]; 80 g/ha): 100%; MATIN herbicidal activity in percent ([9]; 80 g/ha): 100%; POLCO herbicidal activity in percent ([10]; 80 g/ha): 90%; SETVI herbicidal activity in percent ([11]; 80 g/ha): 100%; STEME herbicidal activity in percent ([12]; 80 g/ha): 100%; VERPE herbicidal activity in percent ([13]; 80 g/ha): 100%; VIOTR herbicidal activity in percent ([14]; 80 g/ha): 100%; post-emergence efficacy ECHCG ([20]; 80 g/ha): 100%; post-emergence efficacy ECHCG ([20]; 320 g/ha): 100%; post-emergence efficacy LOLMU [21]: 100%; post-emergence efficacy SETVI ([23]; 80 g/ha (dose by row order of upper half)): 90%; post-emergence efficacy SETVI [23, 24]: 90% |
| Cc1ccc2c(c1)[C@H](Nc1ncc3c(n1)CCCC3=O)[C@@H](C)C2 [2.118] | oily; logp (HCOOH): 4.51; 1H-NMR (CDCl3, 400 MHZ, δ in ppm): 1.25 (d, 3H, 3H | 10% |  | 0% | 90% | 100% | 100% | 100% | 100% | 100% | 100% | 100% | 100% | 100% | 0% | 0% | 0% |  | 0% | 10% | ORYSA herbicidal activity in percent ([2]; 80 g/ha): 10%; TRZAS herbicidal activity in percent ([3]; 80 g/ha): 0%; ZEAMX herbicidal activity in percent ([4]; 80 g/ha): 0%; AMARE herbicidal activity in percent ([6]; 80 g/ha): 100%; LOLMU herbicidal activity in percent ([8]; 80 g/ha): 80%; MATIN herbicidal activity in percent ([9]; 80 g/ha): 90%; SETVI herbicidal activity in percent ([11]; 80 g/ha): 100%; STEME herbicidal activity in percent ([12]; 80 g/ha): 100%; VERPE herbicidal activity in percent ([13]; 80 g/ha): 100%; VIOTR herbicidal activity in percent ([14]; 80 g/ha): 100%; post-emergence efficacy ECHCG ([20]; 320 g/ha): 100%; post-emergence efficacy PHBPU [18]: 100%; post-emergence efficacy LOLMU [21]: 80%; post-emergence efficacy SETVI [23, 24]: 80% |
| Cc1ccc2c(c1)C(Nc1ncc3c(n1)CCCC3=O)CO2 (racemic) [2.117] | oily; logp (HCOOH): 2.52; 1H-NMR (CDCl3, 400 MHZ, δ in ppm): 2.10 (m, 2H, 2H | 0% | 0% | 20% |  |  |  |  | 100% |  |  |  |  |  |  |  |  |  |  |  | ABUTH herbicidal activity in percent [22]: 80% |
| CC(C)C1CC(=O)c2cnc(N[C@@H]3CCc4ccccc43)nc2C1 (stereo partly drawn) [2.103] |  | 0% | 0% | 0% | 80% | 100% | 100% | 90% | 100% |  |  | 100% | 100% | 100% | 0% | 0% | 10% | 20% | 0% | 0% | ORYSA herbicidal activity in percent ([2]; 80 g/ha): 0%; TRZAS herbicidal activity in percent ([3]; 80 g/ha): 0%; ZEAMX herbicidal activity in percent ([4]; 80 g/ha): 0%; AMARE herbicidal activity in percent ([6]; 80 g/ha): 100%; ECHCG herbicidal activity in percent ([7]; 80 g/ha): 90%; MATIN herbicidal activity in percent ([9]; 80 g/ha): 100%; STEME herbicidal activity in percent ([12]; 80 g/ha): 100%; VERPE herbicidal activity in percent ([13]; 80 g/ha): 100%; post-emergence efficacy LOLMU [21]: 80% |
